{
  "source": "paper PMC7180948",
  "about": "“New Insights into 4-Anilinoquinazolines as Inhibitors of Cardiac Troponin I–Interacting Kinase (TNNi3K)” (Molecules, 2020)",
  "test_in_all_cases": "biochemical",
  "set-up_in_all_cases": "KINOMEscan competition binding panel (Eurofins DiscoverX), single concentration, % inhibition",
  "details_in_all_cases": "read-out: 7 at 1 µM % inhibition",
  "key": {"[1]": {"molecular_target": "BRAF(V600E) (Homo sapiens, UniProt P15056, V600E)", "method_in_brief": "(§1)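 KINOMEscan selectivity screen; >400 human kinases; compound at 1 µM, single concentration.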"}, "[2]": {"molecular_target": "CAMK2G (Homo sapiens, UniProt Q13555)", "sequence (Q13555 whole entry)": "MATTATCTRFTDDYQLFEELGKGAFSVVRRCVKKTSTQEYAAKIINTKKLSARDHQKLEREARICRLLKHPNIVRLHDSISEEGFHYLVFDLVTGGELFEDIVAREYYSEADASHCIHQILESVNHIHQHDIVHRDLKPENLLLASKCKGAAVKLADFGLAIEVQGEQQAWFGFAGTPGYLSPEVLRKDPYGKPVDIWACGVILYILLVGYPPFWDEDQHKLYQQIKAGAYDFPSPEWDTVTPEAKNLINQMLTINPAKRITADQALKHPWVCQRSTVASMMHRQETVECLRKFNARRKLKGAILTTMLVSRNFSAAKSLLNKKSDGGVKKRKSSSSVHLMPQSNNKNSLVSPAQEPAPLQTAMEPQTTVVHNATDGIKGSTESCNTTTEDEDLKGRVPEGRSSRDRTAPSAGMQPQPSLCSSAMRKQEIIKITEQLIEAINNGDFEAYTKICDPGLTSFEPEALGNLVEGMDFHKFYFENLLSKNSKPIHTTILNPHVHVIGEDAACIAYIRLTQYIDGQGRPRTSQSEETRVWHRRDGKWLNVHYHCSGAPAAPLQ", "method_in_brief": "as §1"}, "[3]": {"molecular_target": "CAMK4 (Homo sapiens, UniProt Q16566)", "sequence (Q16566 whole entry)": "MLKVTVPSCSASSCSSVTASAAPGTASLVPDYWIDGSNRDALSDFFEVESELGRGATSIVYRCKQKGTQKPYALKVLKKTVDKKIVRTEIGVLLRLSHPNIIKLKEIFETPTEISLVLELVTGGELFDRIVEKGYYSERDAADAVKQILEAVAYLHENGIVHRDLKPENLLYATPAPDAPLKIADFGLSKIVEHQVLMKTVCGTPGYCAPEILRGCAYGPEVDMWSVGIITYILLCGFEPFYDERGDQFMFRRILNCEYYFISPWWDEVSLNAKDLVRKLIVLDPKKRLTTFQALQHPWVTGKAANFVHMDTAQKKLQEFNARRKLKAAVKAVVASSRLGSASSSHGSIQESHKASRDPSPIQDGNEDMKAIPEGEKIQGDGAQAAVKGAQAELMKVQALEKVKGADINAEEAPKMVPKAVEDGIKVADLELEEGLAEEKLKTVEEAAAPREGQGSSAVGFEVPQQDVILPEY", "method_in_brief": "as §1"}, "[4]": {"molecular_target": "CSNK1E (Homo sapiens, UniProt P49674)", "method_in_brief": "as §1"}, "[5]": {"molecular_target": "CSNK1G2 (Homo sapiens, UniProt P78368)", "method_in_brief": "as §1"}, "[6]": {"molecular_target": "FES (Homo sapiens, UniProt P07332)", "method_in_brief": "as §1"}, "[7]": {"molecular_target": "FGFR1 (Homo sapiens, UniProt P11362)", "sequence (P11362 whole entry)": "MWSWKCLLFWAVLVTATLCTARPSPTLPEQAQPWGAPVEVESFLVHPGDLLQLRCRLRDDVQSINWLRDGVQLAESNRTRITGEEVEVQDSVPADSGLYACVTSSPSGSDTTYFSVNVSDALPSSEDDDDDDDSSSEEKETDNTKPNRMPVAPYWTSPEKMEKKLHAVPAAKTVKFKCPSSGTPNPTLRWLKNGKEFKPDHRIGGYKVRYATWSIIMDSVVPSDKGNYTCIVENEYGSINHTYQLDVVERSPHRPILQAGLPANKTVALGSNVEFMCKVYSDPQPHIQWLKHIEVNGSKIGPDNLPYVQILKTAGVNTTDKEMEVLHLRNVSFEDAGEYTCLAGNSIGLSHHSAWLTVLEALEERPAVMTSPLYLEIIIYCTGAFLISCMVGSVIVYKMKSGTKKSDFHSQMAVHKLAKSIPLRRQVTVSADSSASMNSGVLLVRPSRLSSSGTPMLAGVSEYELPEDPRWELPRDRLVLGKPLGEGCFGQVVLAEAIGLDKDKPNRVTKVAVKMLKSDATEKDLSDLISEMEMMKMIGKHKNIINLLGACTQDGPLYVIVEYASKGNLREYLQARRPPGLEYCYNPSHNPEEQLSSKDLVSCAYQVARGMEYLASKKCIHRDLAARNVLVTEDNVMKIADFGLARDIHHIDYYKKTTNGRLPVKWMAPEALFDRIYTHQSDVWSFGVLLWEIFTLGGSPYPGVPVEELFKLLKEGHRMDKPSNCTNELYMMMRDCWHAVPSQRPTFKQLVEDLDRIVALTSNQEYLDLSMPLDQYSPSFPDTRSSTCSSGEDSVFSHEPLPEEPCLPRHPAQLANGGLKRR", "method_in_brief": "as §1"}, "[8]": {"molecular_target": "FLT3(D835H) (Homo sapiens, UniProt P36888, D835H)", "method_in_brief": "as §1"}, "[9]": {"molecular_target": "FYN (Homo sapiens, UniProt P06241)", "method_in_brief": "as §1"}, "[10]": {"molecular_target": "HCK (Homo sapiens, UniProt P08631)", "method_in_brief": "as §1"}, "[11]": {"molecular_target": "KIT(L576P) (Homo sapiens, UniProt P10721, L576P)", "method_in_brief": "as §1"}, "[12]": {"molecular_target": "LCK (Homo sapiens, UniProt P06239)", "sequence (P06239 whole entry)": "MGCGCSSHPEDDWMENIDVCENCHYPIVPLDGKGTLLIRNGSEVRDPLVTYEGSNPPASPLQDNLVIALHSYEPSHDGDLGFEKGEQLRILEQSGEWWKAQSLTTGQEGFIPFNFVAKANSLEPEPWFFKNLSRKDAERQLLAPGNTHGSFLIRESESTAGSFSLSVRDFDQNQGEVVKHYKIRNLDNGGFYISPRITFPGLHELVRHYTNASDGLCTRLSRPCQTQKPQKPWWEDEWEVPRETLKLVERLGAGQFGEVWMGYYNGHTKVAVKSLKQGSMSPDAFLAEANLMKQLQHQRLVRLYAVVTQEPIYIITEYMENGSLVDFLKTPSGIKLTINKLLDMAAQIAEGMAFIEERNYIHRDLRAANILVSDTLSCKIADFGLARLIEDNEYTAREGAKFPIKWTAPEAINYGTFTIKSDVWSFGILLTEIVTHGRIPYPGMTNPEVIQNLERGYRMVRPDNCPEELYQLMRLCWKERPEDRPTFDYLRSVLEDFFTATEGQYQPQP", "method_in_brief": "as §1"}, "[13]": {"molecular_target": "LRRK2(G2019S) (Homo sapiens, UniProt Q5S007, G2019S)", "method_in_brief": "as §1"}, "[14]": {"molecular_target": "MAK (Homo sapiens, UniProt P20794)", "method_in_brief": "as §1"}, "[15]": {"molecular_target": "MAPKAPK2 (Homo sapiens, UniProt P49137)", "method_in_brief": "as §1"}, "[16]": {"molecular_target": "MYLK (Homo sapiens, UniProt Q15746)", "method_in_brief": "as §1"}, "[17]": {"molecular_target": "NEK10 (Homo sapiens, UniProt Q6ZWH5)", "method_in_brief": "as §1"}, "[18]": {"molecular_target": "PIM2 (Homo sapiens, UniProt Q9P1W9)", "sequence (Q9P1W9 whole entry)": "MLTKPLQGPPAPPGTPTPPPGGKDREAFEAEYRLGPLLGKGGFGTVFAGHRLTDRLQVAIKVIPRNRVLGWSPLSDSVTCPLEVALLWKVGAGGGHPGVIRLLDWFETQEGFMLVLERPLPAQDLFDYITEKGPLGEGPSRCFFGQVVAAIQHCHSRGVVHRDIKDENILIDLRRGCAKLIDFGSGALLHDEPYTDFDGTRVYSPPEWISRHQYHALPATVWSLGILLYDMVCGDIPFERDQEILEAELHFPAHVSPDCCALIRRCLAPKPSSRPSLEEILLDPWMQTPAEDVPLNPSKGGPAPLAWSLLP", "method_in_brief": "as §1"}, "[19]": {"molecular_target": "PIP5K1A (Homo sapiens, UniProt Q99755)", "sequence (Q99755 whole entry)": "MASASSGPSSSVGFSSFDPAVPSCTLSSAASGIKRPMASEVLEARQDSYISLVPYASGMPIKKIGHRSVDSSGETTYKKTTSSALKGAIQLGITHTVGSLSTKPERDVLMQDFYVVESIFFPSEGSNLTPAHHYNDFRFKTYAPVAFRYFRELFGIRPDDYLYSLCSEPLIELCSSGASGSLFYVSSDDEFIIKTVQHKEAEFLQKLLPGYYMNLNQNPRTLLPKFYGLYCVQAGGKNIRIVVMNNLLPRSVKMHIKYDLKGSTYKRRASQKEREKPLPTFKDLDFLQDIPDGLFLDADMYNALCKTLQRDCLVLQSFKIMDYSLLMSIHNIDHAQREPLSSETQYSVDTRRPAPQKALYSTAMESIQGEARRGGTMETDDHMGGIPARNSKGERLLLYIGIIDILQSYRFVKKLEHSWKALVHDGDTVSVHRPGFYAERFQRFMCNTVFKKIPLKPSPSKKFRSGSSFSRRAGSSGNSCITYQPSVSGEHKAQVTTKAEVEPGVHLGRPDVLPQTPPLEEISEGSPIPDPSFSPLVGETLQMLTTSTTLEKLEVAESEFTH", "method_in_brief": "as §1"}, "[20]": {"molecular_target": "PRKD1 (Homo sapiens, UniProt Q15139)", "method_in_brief": "as §1"}, "[21]": {"molecular_target": "RAF1 (Homo sapiens, UniProt P04049)", "method_in_brief": "as §1"}, "[22]": {"molecular_target": "RIOK3 (Homo sapiens, UniProt O14730)", "sequence (O14730 whole entry)": "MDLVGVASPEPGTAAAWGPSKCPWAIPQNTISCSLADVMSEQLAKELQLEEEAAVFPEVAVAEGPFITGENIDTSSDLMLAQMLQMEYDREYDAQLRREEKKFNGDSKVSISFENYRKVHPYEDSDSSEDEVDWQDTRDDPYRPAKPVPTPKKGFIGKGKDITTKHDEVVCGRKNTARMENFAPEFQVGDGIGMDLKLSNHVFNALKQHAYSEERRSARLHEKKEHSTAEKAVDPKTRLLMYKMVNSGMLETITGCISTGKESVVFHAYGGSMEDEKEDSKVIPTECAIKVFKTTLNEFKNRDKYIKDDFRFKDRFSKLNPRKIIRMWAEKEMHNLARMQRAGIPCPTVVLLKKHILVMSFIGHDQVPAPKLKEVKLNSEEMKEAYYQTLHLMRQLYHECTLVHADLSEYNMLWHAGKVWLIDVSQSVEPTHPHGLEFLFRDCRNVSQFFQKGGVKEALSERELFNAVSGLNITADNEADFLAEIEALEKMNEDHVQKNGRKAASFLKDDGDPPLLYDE", "method_in_brief": "as §1"}, "[23]": {"molecular_target": "RIPK4 (Homo sapiens, UniProt P57078)", "method_in_brief": "as §1"}, "[24]": {"molecular_target": "TAOK2 (Homo sapiens, UniProt Q9UL54)", "sequence (Q9UL54 whole entry)": "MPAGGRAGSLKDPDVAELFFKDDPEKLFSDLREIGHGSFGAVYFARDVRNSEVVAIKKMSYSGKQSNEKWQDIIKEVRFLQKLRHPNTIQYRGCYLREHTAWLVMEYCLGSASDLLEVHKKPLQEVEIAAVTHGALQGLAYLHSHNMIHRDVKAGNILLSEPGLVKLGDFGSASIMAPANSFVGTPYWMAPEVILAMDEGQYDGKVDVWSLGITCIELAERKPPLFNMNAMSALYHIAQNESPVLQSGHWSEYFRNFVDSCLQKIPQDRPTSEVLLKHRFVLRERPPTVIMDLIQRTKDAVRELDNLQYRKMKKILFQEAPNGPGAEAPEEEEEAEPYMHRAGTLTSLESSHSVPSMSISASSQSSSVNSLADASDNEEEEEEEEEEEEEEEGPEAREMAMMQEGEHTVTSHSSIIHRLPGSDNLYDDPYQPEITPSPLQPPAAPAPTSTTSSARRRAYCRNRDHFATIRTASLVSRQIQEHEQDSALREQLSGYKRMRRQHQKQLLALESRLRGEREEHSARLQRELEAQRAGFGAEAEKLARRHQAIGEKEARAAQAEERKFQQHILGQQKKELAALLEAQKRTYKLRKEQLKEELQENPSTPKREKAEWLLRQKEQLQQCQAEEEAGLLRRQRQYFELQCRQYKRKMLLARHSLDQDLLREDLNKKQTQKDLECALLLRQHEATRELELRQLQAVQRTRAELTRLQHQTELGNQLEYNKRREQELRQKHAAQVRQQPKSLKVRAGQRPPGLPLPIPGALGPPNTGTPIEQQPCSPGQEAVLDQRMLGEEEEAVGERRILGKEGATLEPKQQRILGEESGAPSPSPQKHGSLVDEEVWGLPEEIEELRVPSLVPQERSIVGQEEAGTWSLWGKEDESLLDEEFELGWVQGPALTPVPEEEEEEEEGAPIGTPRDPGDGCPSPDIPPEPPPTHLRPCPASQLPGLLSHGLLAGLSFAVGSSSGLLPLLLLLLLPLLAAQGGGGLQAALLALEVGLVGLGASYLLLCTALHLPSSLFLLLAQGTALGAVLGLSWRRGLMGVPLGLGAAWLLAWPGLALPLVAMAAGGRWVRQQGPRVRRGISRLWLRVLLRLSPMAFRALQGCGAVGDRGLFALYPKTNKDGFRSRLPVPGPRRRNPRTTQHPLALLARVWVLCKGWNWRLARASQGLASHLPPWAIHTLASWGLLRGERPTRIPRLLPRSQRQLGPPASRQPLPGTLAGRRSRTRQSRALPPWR", "method_in_brief": "as §1"}, "[25]": {"molecular_target": "T1, TRKA (Homo sapiens, UniProt P04629)", "T1 construct": "gene NTRK1", "method_in_brief": "as §1"}},
  "data": [
    {"smiles": "CNS(=O)(=O)c1ccc(N(C)C)c(Nc2ncnc3cc(OC)c(OC)cc23)c1", "note": "[compound 7, 3-((6,7-dimethoxyquinazolin-4-yl)amino)-4-(dimethylamino)-N-methylbenzenesulfonamide]", "values": [
      {"measurement": "inhibition at 1 µM", "setting": "[1]", "value": 83, "unit": "%"},
      {"measurement": "inhibition at 1 µM", "setting": "[2]", "value": 0, "unit": "%"},
      {"measurement": "inhibition at 1 µM", "setting": "[3]", "value": 0, "unit": "%"},
      {"measurement": "inhibition at 1 µM", "setting": "[4]", "value": 0, "unit": "%"},
      {"measurement": "inhibition at 1 µM", "setting": "[5]", "value": 0, "unit": "%"},
      {"measurement": "inhibition at 1 µM", "setting": "[6]", "value": 0, "unit": "%"},
      {"measurement": "inhibition at 1 µM", "setting": "[7]", "value": 20, "unit": "%"},
      {"measurement": "inhibition at 1 µM", "setting": "[8]", "value": 20, "unit": "%"},
      {"measurement": "inhibition at 1 µM", "setting": "[9]", "value": 0, "unit": "%"},
      {"measurement": "inhibition at 1 µM", "setting": "[10]", "value": 11, "unit": "%"},
      {"measurement": "inhibition at 1 µM", "setting": "[11]", "value": 49, "unit": "%"},
      {"measurement": "inhibition at 1 µM", "setting": "[12]", "value": 63, "unit": "%"},
      {"measurement": "inhibition at 1 µM", "setting": "[13]", "value": 23, "unit": "%"},
      {"measurement": "inhibition at 1 µM", "setting": "[14]", "value": 0, "unit": "%"},
      {"measurement": "inhibition at 1 µM", "setting": "[15]", "value": 0, "unit": "%"},
      {"measurement": "inhibition at 1 µM", "setting": "[16]", "value": 9, "unit": "%"},
      {"measurement": "inhibition at 1 µM", "setting": "[17]", "value": 0, "unit": "%"},
      {"measurement": "inhibition at 1 µM", "setting": "[18]", "value": 0, "unit": "%"},
      {"measurement": "inhibition at 1 µM", "setting": "[19]", "value": 0, "unit": "%"},
      {"measurement": "inhibition at 1 µM", "setting": "[20]", "value": 20, "unit": "%"},
      {"measurement": "inhibition at 1 µM", "setting": "[21]", "value": 23, "unit": "%"},
      {"measurement": "inhibition at 1 µM", "setting": "[22]", "value": 0, "unit": "%"},
      {"measurement": "inhibition at 1 µM", "setting": "[23]", "value": 0, "unit": "%"},
      {"measurement": "inhibition at 1 µM", "setting": "[24]", "value": 20, "unit": "%"},
      {"measurement": "inhibition at 1 µM", "setting": "[25]", "value": 22, "unit": "%"}
    ]}
  ]
}
